# Assay results published in PMC11352859, “Functionalized Congeners of 2H-Chromene P2Y6 Receptor Antagonists” (Cells, 2024).
# Values joined by “and” are separate entries in the source; they are usually repeats but may differ in a detail not shown here. Equal values may be shown once. Read-outs that look alike come from different tables or passages of the source.
# How the values were obtained:
# rP2Y6 = conditions: Figure 1; ref [33]; cited from earlier work
# [1] = tested on: 45 target sites (receptors, channels, and transporters); test: PDSP off-target binding screen at 45 target sites; design: species or system human; conditions: PDSP binding assays
# From the text: (§1) Table S2. Off-target screening (to replace table later). We thank Dr. Bryan L. Roth (Univ. North Carolina at Chapel Hill) and National Institute of Mental Health's Psychoactive Drug Screening Program (Contract # HHSN-271-2008-00025-C) for screening data. Reference: Besnard et al.
# (§2) Procedures: https://pdsp.unc.edu/pdspweb/content/UNC-CH%20Protocol%20Book.pdf […]
# (§3) nucleosides were found at the following sites (human unless noted): 5HT1A, 5HT1B, 5HT1D, […]
# (§4) β3, BZP rat brain site, D1, D2, D3, D4, D5, GABAA, H1, H2, H3, H4, M1, M2, M5, δ-opioid receptor (DOR), κ-opioid receptor (KOR), μ-opioid receptor (MOR), σ1, σ2, DAT, NET, SERT. Ki values […]
# (§5) Compound # PDSP # Receptor LogKi Ki (nM)
# HeLa cells = test: MTT cell viability assay, HeLa cells; assay type: cell-based, human; conditions: for % survival: 12 h, MTT
# Method: (§6) The 1321N1 astrocytoma (hP2Y6R-overexpressing) and HeLa (non-transfected) cell lines were cultured in Dulbecco’s modified Eagle’s medium (DMEM, HyClone, Logan, UT, USA) supplemented with 5% heat-inactivated fetal bovine serum (FBS, HyClone, UT, USA), 100 U/mL penicillin, and 100 µg/mL streptomycin in 5% CO2 at 37 °C. The cell viability was determined using an MTT kit (Sigma, St. Louis, MO, USA) according to the manufacturer’s instructions. Briefly, 1 × 10^4 cells were seeded in triplicate in 96-well plates. The hP2Y6R-astrocytoma and HeLa cells were treated with a P2Y6R agonist and antagonists at a range of concentrations and incubated for 12 h. The cell viability was measured at 490 nm using a SpectraMax-M5 Spectrometer (Molecular Devices, San Jose, CA, USA).
# [2] = tested on: hP2Y6R-1321N1 human astrocytoma cells; test: MTT cell viability assay, hP2Y6R-1321N1 astrocytoma cells; assay type: cell-based; conditions: for % survival: P2Y6R-astrocytoma, 12 h, MTT
# Method: as §6
# mP2Y6 = tested on: mP2Y6; design: method as in PMID 37078976; conditions: Figure 1; ref [33]; cited from earlier work
# hP2Y6R = target: T1, hP2Y6R (Homo sapiens, UniProt Q15077); test: UDP (100 nM)-induced Ca2+ mobilization in hP2Y6R stably transfected 1321N1 astrocytoma cells; assay type: cell-based; conditions: UDP 100 nM; 3–4 independent triplicate determinations; read-out: IC50, hP2Y6R (Mean ± SEM)
# T1 construct: expressed in transfected cells
# Method: To screen for P2Y6R antagonist activity, PLC-mediated calcium mobilization assays were carried out using the recombinant human P2Y6R stably expressed in 1321N1 astrocytoma cells (hP2Y6R-1321N1) according to the previously published method. Briefly, the hP2Y6R-1321N1 cells were seeded on 96-well black plates and incubated overnight. The antagonists were pretreated along with the FLIPR dye (Calcium 6 assay kit, Molecular Devices, San Jose, CA, USA) containing 5 mM probenecid for 45 min, prior to agonist addition followed by an immediate intracellular Ca^2+ measurement. […] Here, probenecid was used as an organic anion transporter inhibitor to prevent the efflux of the dye into the extracellular environment. During incubation, the membrane permeable dye enters the cytoplasm and cleaves the acetoxymethyl protection to enable Ca^2+ binding. When the P2Y6R was activated by UDP, the increased calcium concentration was directly measured by intracellular changes in the fluorescence intensity with a Fluorescent Imaging Plate Reader (FLIPR^TETRA, Molecular Devices, San Jose, CA, USA).
# α2A [3] = target: T2, α2A (Homo sapiens, UniProt P08913); design: method as in Jung et al., 2021 and 2022 [30],[40]; conditions: PDSP; ref Jung et al., 2021 and 2022 [30],[40]; cited from earlier work
# T2 construct: NIMH Psychoactive Drug Screening Program (PDSP)
# T2 sequence (P08913 1-465): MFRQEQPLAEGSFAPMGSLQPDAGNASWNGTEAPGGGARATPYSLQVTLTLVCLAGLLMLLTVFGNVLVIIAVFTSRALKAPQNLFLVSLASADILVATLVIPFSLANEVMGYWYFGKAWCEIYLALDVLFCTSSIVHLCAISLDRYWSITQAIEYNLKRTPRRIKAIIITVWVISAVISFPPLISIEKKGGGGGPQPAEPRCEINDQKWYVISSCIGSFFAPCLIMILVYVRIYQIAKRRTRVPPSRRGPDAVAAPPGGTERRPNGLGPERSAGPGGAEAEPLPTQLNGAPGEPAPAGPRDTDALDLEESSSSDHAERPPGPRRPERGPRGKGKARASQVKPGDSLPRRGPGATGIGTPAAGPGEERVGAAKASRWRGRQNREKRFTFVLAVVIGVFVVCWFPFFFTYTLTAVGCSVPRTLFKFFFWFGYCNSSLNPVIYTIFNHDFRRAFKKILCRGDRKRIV
# other P2YRs = conditions: at high µM concentrations; ref [29],[43]; cited from earlier work
# α2C = target: α2C; design: method as in Jung et al., 2021 and 2022 [30],[40]; conditions: PDSP; ref Jung et al., 2021 and 2022 [30],[40]; cited from earlier work
# µ-opioid receptor (MOR) = target: µ-opioid receptor (MOR); design: method as in Jung et al., 2021 and 2022 [30],[40]; conditions: PDSP; ref Jung et al., 2021 and 2022 [30],[40]; cited from earlier work
# hP2Y14R = target: T3, hP2Y14R (Homo sapiens, UniProt Q15391); test: whole-cell binding of fluorescent antagonist MRS4174 in CHO-hP2Y14R cells (flow cytometry)
# T3 construct: expressed in transfected cells
# T3 sequence (Q15391 1-338): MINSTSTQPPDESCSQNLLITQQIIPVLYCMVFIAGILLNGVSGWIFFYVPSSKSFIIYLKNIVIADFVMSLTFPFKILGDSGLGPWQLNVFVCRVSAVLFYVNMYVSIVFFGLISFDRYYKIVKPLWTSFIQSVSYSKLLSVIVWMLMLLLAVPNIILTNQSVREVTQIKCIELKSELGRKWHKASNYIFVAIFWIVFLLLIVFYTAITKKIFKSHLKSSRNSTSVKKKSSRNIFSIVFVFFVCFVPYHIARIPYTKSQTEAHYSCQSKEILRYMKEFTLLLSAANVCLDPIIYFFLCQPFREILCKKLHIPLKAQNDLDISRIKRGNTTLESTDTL
# α2A [4] = target: T2, α2A; test: PDSP binding assay, α2A
# From the text: as §1, §2, §3, §4, §5
# α2B = target: T4, α2B (Homo sapiens, UniProt P18089); test: PDSP binding assay, α2B; conditions: mean, n = 2
# T4 construct: NIMH Psychoactive Drug Screening Program (PDSP)
# T4 sequence (P18089 1-450): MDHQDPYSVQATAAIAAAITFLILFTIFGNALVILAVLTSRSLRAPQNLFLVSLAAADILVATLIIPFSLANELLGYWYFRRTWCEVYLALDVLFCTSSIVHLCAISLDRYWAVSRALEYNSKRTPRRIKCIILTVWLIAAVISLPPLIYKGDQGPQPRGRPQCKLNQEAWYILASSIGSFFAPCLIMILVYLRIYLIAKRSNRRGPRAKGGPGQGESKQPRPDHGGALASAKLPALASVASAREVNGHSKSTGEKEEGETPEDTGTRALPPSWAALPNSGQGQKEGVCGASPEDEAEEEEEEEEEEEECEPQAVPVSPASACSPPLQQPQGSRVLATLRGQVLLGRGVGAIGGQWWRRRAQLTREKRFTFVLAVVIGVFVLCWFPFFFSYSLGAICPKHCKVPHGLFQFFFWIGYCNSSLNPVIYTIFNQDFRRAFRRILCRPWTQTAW
# From the text: as §1, §2, §3, §4, §5
# D1 = target: T5, D1 (Homo sapiens, UniProt P21728); test: PDSP binding assay, D1
# T5 construct: NIMH Psychoactive Drug Screening Program (PDSP)
# From the text: as §1, §2, §3, §4, §5
# D5 = target: T6, D5 (Homo sapiens, UniProt P21918); test: PDSP binding assay, D5
# T6 construct: NIMH Psychoactive Drug Screening Program (PDSP)
# From the text: as §1, §2, §3, §4, §5
# H1 = target: T7, H1 (Homo sapiens, UniProt P35367); test: PDSP binding assay, H1
# T7 construct: NIMH Psychoactive Drug Screening Program (PDSP)
# From the text: as §1, §2, §3, §4, §5
# 5-HT1D = target: T8, 5-HT1D (Homo sapiens, UniProt P28221); test: PDSP binding assay, 5-HT1D
# T8 construct: NIMH Psychoactive Drug Screening Program (PDSP)
# From the text: as §1, §2, §3, §4, §5
# P2Y6R = P2Y6R agonist; no reference given; read-out: EC50 in PLC activation; cited from earlier work
# T6 sequence (P21918 whole entry): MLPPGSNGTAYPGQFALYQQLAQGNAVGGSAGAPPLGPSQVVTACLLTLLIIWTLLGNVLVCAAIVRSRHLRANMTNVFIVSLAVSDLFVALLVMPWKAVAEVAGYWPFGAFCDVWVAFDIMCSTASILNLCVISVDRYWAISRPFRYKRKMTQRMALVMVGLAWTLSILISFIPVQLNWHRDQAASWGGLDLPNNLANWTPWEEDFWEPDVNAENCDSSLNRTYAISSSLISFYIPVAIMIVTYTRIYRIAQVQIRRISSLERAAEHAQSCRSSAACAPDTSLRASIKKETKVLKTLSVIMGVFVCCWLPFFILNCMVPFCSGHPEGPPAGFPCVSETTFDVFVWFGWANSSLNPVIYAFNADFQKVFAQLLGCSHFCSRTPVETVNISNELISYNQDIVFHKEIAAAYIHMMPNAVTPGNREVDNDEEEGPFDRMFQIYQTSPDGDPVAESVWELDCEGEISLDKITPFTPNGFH
# T8 sequence (P28221 whole entry): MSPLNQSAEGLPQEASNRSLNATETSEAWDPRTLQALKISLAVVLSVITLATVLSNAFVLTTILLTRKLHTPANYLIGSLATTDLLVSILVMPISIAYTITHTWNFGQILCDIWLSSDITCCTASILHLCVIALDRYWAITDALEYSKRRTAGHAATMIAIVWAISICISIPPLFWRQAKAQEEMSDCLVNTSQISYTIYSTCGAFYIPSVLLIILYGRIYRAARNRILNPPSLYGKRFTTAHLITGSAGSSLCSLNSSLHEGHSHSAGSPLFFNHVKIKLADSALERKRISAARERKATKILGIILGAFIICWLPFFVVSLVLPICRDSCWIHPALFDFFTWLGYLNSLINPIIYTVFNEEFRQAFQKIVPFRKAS
# T7 sequence (P35367 whole entry): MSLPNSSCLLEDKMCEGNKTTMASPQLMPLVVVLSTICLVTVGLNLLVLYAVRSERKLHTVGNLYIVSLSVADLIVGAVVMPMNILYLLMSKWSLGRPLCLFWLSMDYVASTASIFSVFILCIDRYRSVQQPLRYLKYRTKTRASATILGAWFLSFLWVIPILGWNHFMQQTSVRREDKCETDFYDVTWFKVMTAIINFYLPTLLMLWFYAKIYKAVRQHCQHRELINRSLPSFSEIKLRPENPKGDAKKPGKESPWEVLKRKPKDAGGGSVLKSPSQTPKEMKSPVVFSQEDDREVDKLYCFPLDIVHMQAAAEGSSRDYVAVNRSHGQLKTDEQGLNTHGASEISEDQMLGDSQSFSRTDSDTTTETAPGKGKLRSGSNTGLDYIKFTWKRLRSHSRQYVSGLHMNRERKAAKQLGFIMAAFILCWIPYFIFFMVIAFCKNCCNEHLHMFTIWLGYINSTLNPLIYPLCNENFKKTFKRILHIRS
# T5 sequence (P21728 whole entry): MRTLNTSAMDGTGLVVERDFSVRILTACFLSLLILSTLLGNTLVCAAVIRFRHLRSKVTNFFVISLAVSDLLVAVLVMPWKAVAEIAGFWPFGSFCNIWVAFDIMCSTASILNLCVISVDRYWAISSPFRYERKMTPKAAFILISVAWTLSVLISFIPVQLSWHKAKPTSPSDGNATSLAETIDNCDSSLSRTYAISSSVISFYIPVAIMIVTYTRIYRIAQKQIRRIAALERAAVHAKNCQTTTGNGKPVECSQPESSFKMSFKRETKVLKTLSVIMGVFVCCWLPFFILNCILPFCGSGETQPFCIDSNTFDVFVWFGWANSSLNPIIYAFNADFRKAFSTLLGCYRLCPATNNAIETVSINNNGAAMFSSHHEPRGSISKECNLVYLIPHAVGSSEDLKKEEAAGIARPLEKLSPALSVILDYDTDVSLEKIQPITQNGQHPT
# T1 sequence (Q15077 whole entry): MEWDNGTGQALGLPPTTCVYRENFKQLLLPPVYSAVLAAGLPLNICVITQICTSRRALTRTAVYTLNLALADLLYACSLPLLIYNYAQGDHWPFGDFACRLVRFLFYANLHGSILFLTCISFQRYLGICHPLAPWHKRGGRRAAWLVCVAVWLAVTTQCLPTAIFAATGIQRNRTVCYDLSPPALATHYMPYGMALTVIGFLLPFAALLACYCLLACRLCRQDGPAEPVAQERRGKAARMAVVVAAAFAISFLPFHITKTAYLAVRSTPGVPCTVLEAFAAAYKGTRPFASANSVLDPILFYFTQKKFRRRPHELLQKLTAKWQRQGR
compound,measurement,setting,value
S=C=Nc1cccc(NC(=S)NCCCCNC(=S)Nc2cccc(N=C=S)c2)c1 [Compound 1],IC50,rP2Y6,0.098 µM
O=[N+]([O-])C1=Cc2cc(F)cc(F)c2OC1C(F)(F)F (centres unmarked) [Compound 2b],off-target interactions at 45 target sites,[1],no off-target interactions and none
same,% survival,HeLa cells; 0.1 µM,87%
same,% survival,HeLa cells; 0.5 µM,86%
same,% survival,HeLa cells; 1 µM,87%
same,% survival,HeLa cells; 5 µM,84%
same,% survival,HeLa cells; 10 µM,78%
same,inhibition of viability,"HeLa cells; at 10 µM, 12 h exposure",22%
same,% survival,[2]; 0.1 µM,104%
same,% survival,[2]; 0.5 µM,104%
same,% survival,[2]; 1 µM,105%
same,% survival,[2]; 5 µM,98%
same,% survival,[2]; 10 µM,88%
same,inhibition of viability,"[2]; hP2Y6R-1321N1 cells, at 10 µM, 12 h exposure",12%
same,IC50,mP2Y6,17.8 µM
CC[Si](C#Cc1ccc2c(c1)C=C([N+](=O)[O-])C(C(F)(F)F)O2)(CC)CC (centres unmarked) [Compound 13],IC50,hP2Y6R,0.604 ± 0.239 µM
same,Ki,α2A [3],2 µM
same,inhibition at most other P2YRs,other P2YRs,minor
O=C(O)c1ccc(C#Cc2ccc3c(c2)C=C([N+](=O)[O-])C(C(F)(F)F)O3)cc1 (centres unmarked) [Compound 17],Ki,α2C,2.6 µM
same,Ki,µ-opioid receptor (MOR),4.2 µM
same,inhibition at most other P2YRs,other P2YRs,minor
"CC(C)(C)OC(=O)NCCCCC#Cc1ccc2c(c1)C=C([N+](=O)[O-])C(C(F)(F)F)O2 (centres unmarked) [Compound 24, tert-Butyl (6-(3-nitro-2-(trifluoromethyl)-2H-chromen-6-yl)hex-5-yn-1-yl)carbamate]",IC50,hP2Y6R,0.568 ± 0.163 µM
same,IC50,"hP2Y14R; CHO-hP2Y14, competitive binding, flow cytometer",5.6 ± 0.7 µM
same,fold selective compared to the hP2Y14R,hP2Y14R; hP2Y6R vs hP2Y14R,10 fold
same,Ki,"α2A [4]; PDSP, mean, n = 2, read-out: Ki, α2A",160 nM
same,Ki,"α2A [4]; Table S2, single determinations, read-out: Ki (nM), Alpha2A",148 nM and 168 nM
same,Ki,α2B,0.46 µM
same,Ki,"D1; PDSP, mean, n = 2, read-out: Ki, D1",1900 nM
same,Ki,"D1; Table S2, single determination, read-out: Ki (nM), D1",1600 nM
same,Ki,"D5; PDSP, mean, n = 2, read-out: Ki, D5",2400 nM
same,Ki,"D5; Table S2, single determinations, read-out: Ki (nM), D5",1360 nM and 3420 nM
same,Ki,"H1; PDSP, mean, n = 2, read-out: Ki, H1",1000 nM
same,Ki,"H1; Table S2, single determinations, read-out: Ki (nM), H1",631 nM and 1430 nM
same,Ki,"5-HT1D; PDSP, mean, n = 2, read-out: Ki, 5-HT1D",3200 nM
same,Ki,"5-HT1D; Table S2, single determinations, read-out: Ki (nM), 5-HT1D",3260 nM and 3040 nM
"O=c1[nH]c(=O)n([C@@H]2O[C@H](COP(=O)(O)OP(=O)(O)O)[C@@H](O)[C@H]2O)cc1I [MRS2693, 5-iodouridine-5′-O-diphosphate, reference compound]",% survival,HeLa cells; 1 µM,105%
same,% survival,HeLa cells; 5 µM,106%
same,% survival,HeLa cells; 10 µM,104%
same,% survival,[2]; 1 µM,98%
same,% survival,[2]; 5 µM,100%
same,% survival,[2]; 10 µM,101%
same,effect on viability,"[2]; astrocytoma cells, ≤10 µM, 12 h exposure",no significant effect
same,EC50,P2Y6R,0.015 µM
"O=c1ccn([C@@H]2O[C@H](COP(=O)(O)OP(=O)(O)O)[C@@H](O)[C@H]2O)c(=O)[nH]1 [UDP, uridine 5′-diphosphate]",EC50,P2Y6R,0.013 µM
